From patent publication US11911399B2, “Treating and preventing disease with TMA and TMAO lowering agents” (The Cleveland Clinic Foundation, priority 2014, dated 2024)
Entries after “also recorded” stand apart in the source; their conditions may differ. Read-outs that look alike come from different tables or passages of the source.

Key:
[1] = test system: in vivo thrombosis potential
microbial TMA lyase = test: TMA lyase activity of Proteus mirabilis lysate (TMA production from d9 substrates); format: biochemical
Description: Using PM lysate (PM that is lysed in a French press to break open the cell wall and release enzyme contents) as the enzyme source, the TMA lyase activity (TMA producing activity) was examined in incubations with either d9(trimethyl)choline as substrate, or […] (GPC) as substrate. […] A further examination of the impact of ASA on TMA lyase activity by PM lysate was undertaken. Three mg of PM lysate was incubated with 25 uM choline and 25 uM choline(d9) in 2 ml PBS at 37 C for 20 hours. In FIG. 7, the dotted lines at 81 mg and 320 mg ASA represent reported steady state plasma levels of aspirin reported at those doses in human subjects. […] In light of this, in some embodiments, enteric coated aspirin or aspirin derivatives that have delayed absorption may be employed to treat disease since they would dissolve in the intestines past the stomach, such that the level of ASA or derivative delivered to the gut lumen will be higher. There exist even longer delayed release formulations of medications that could also be used.

platelet aggregation = test: Platelet aggregometry with submaximal ADP stimulation in human subjects
Description: In further works, human volunteer subject were enrolled in the following study. Individuals were examined at baseline for plasma TMAO and blood drawn for platelet aggregometry studies with submaximal ADP stimulation. Subjects were examined both naïve to aspirin, and then at different time after taking chronic aspirin (81 mg daily) for at least a month. […] After washout period of at least 4 months with no choline supplement, subjects were placed on ASA daily (81 mg) and after a month of ASA, the baseline TMAO level and platelet aggregmetry measure monitored. Then, choline supplementation daily was again resumed.
Choline supplement was used in subjects (choline bitartrate, 2×500 mg/day=choline 2×205.7 mg/day), for 2 month period. Samples were collected at baseline and monthly blood were draw (1,2 months). Plasma levels of TMAO were measured and platelet aggregation in response to 5 uM ADP were measured.

[2] = omnivores, ASA 81 mg daily for at least a month, then daily choline supplementation
[3] = Plasma TMAO in mice on chow or choline diet with or without ASA (LC/MS/MS); format: in vivo, C57BL/6J females mice; conditions: both diets (chow and choline), p<0.05 in each diet
[4] = test system: parenchymal fibrosis and collagen deposition in mouse kidneys; test: Renal fibrosis, Mason trichrome quantitative morphometry; format: in vivo, C57BL/6J mice; conditions: 6 weeks diet: TMAO 0.12% or choline 1.0% vs chow
Excerpt: Quantitative Histologic Techniques.

KIM-1 = test: Immunoblot of KIM-1 expression in mouse kidneys; format: in vivo, C57BL/6J mice; conditions: 6 weeks diet: TMAO 0.12% or choline 1.0% vs chow
Excerpt: (§1) Preparation of tissue homogenates and immunoblotting.

cystatin C = test: Cystatin C levels in mice (ELISA); format: in vivo; conditions: 16 weeks diet: TMAO 0.12% or choline 1.0% vs chow
SMAD3 = test: Immunoblot of Smad3 phosphorylation in mouse kidneys; format: in vivo, C57BL/6J mice; conditions: 6 weeks diet: TMAO 0.12% or choline 1.0% vs chow
Excerpt: as §1

Compound | time to blood flow cessation ([1]; choline diet+ASA group vs control (chow and no ASA)) | TMA lyase inhibition (microbial TMA lyase; 3 mg PM lysate, 25 uM choline and 25 uM choline(d9), 37 C, 20 hours, at ASA plasma level anticipated for 320 mg dose) | inhibition of TMA production (choline TMA lyase activity) (microbial TMA lyase; PM lysate, d9(trimethyl)choline as substrate, physiological range of ASA) | inhibition of TMA production (GPC TMA lyase activity) (microbial TMA lyase; PM lysate, d9(trimethyl)glycerophosphocholine (GPC) as substrate, physiological range of ASA) | rise in platelet aggregation on choline supplementation (platelet aggregation; omnivores, ASA 81 mg daily, submaximal ADP stimulation) | rise in plasma TMAO on choline supplementation [2] | reduction in TMAO level by addition of ASA [3] | parenchymal fibrosis and collagen deposition [4] | kidney injury marker-1 (KIM-1) (KIM-1) | serum cystatin C levels (cystatin C) | phosphorylation of Smad3 (serine 423/425) (SMAD3) | time to blood flow cessation ([1]; choline diet alone vs chow, p<0.0001) | platelet aggregometry (platelet aggregation; human, in vivo)
CC(=O)Oc1ccccc1C(=O)O [ASA, acetylsalicylic acid] | no difference in time to blood flow cessation relative to the control | approximately 40% | inhibited TMA production; also recorded: inhibits | inhibited TMA production; also recorded: inhibits | corresponding rise in platelet aggregation too was blunted | The impact of the choline diet on rise in TMAO was blunted | approx. 2 fold |  |  |  |  |  | 
C[N+](C)(C)[O-] [TMAO, trimethylamine N-oxide] |  |  |  |  |  |  |  | corresponding increases in parenchymal fibrosis and collagen deposition | increased kidney injury marker-1 | increased serum cystatin C levels compared to chow-fed mice | enhanced phosphorylation of Smad3 |  | 
C[N+](C)(C)CCO [choline] |  |  |  |  |  |  |  | corresponding increases in parenchymal fibrosis and collagen deposition | increased kidney injury marker-1 | increased serum cystatin C levels compared to chow-fed mice | enhanced phosphorylation of Smad3 | reduces the time to blood flow cessation | corresponding increases in platelet aggregometrry
